How the values were obtained:
[1] = system: 5-LO; assay: In vivo inhibition of OA-induced increase in tracheal pressure in passively sensitized guinea pigs, oral dosing; design: species or system guinea pig (male Hartley); conditions: 2 hr, OA challenge; for inhibition in vivo at 30 mg/kg: Cavia porcellus, read-out: Inhibition of 5-LO In Vivo Percent Inhibition at 30 mg/kg, po, 2 hr.
Description: Male Hartley guinea pigs (350-500 g) were passively sensitized against ovalbumin by i.p. administration of 0.3 ml of antiserum 2 days preceeding the experiment. Hyperimmune serum was prepared from actively sensitizing male guinea pigs conditioned with 2 mg of ovalbumin in 50% Complete Freund's Adjuvant i.p. on days 1 and 5. On day 21, the animals were bled and the serum collected and stored at -20° C. On the day of the experiment the passively sensitized guinea pigs were anesthetized with 35 to 40 mg/kg of pentobarbital sodium given i.p. The right jugular vein was cannulated with Tygon microbore tubing (o.d.=03) connected to a syringe for administration of selected drugs. Blood pressure was measured with a Statham pressure transducer connected to a Tygon catheter placed in the left carotid artery. The trachea was cannulated and each animal was ventilated with room air by means of a Harvard rodent respirator set to deliver a tidal volume of 1 ml/100 g body weight with a rate of 60 breaths/minute. Succinylcholine (5 mg/kg) was given i.v. to suppress spontaneous respiration. Intratracheal pressure, an index of total pulmonary resistance, was measured with a Statham pressure transducer connected to a T-tube on the tracheal cannula. […] Body temperature was maintained within normal limits by means of a Deltaphase isothermal pad. Prior to surgery, test compound or vehicle (PEG 400) was administered to each guinea pig by oral gavage and OA challenge was at designated times following oral dosing. The animals were pretreated i.v. with pyrilamine (5 mg/kg), propranolol (1 mg/kg) and indomethacin (10 mg/kg) 5 minutes prior to the OA challenge. OA-induced increase in tracheal pressure was expressed as a percentage of the maximal pressure obtained by clamping the trachea with a hemistat. To determine the effect of each drug, a % inhibition value was calculated from the vehicle and drug treated animals at each concentration tested.

[2] = system: 5-LO; assay: In vitro inhibition of 5-LO: Schultz-Dale reaction (ovalbumin-induced contraction of tracheal strips from actively sensitized guinea pigs); assay type: tissue-based, guinea pig (male Hartley); conditions: Cavia porcellus; sensitized guinea-pig tracheal strips; antigen (OA) 30 ng/ml; 30 min preincubation; indomethacin 5 μM, pyrilamine 10 μM
Description: Male, Hartley strain guinea-pigs (200-250 g) were actively sensitized by three injections of ovalbumin (OA, 10 mg/kg). The OA was administered intraperitoneally on Days 1 and 3 and subcutaneously on Day 5. In vitro experiments were performed 21-25 days later.
On the day of the experiment, guinea pigs were killed by asphyxiation with CO2 and the tracheas removed, cleaned of surrounding connective tissue and cut into sprial strips. Each strip was divided in half for paired experiments. Tissues were placed in 10 ml jacketed tissue baths maintained at 37° C. and attached with cotton thread to Grass force-displacement transducers (FT03C). […] Tracheal strips were bathed in modified Krebs' solution of the following composition (millimolar) NaCl, 118.2; KCl, 4.6; CaCl2.2H2 O, 2.5; MgSO4.7H2 O, 1.2; NaHCO3, 24.8; KH2 PO4, 1.0; and dextrose, 10.0. The buffer contained indomethacin (5 μM) which potentiated the contractions of the cysteinyl leukotrienes (LT) by removing the influence of cyclooxygenase products. The tissue baths were aerated with 95% O2 :5% CO2. Tracheal strips were placed under a resting tension of 2 g, and the tissues were allowed a minimal stabilization period of 60 minutes before undergoing experimentation. Bath fluid was changed at 15 minute intervals during the stabilization period.
Concentration-response curves
Cumulative concentration-response curves were obtained from tracheal strips by increasing the agonist concentration in the organ bath by half-log increments while the previous concentration remained in contact with the tissues van Rossum, Arch, Int. Pharmacodymn Ther., 143, 299-330 (1963). Agonist concentration was increased after reaching the plateau of the contraction elicited by the preceeding concentration. One concentration-response curve was obtained from each tissue. To minimize variability between tissues, contractile responses were expressed as a percentage of the maximal response obtained with carbachol (10 μM), added to the bath at the end of the concentration-response curve. Initially, tissues were challenged with carbachol (10 μM) following the 60 minute stabilization period to insure tissue viability. After recording the maximal response to the initial carbachol challenge, the tissues were washed and re-equilibrated for 60 minutes before starting the experimental protocol.
Determination of EC50 and % Inhibition
To evaluate the effects of novel 5-lipoxygenase inhibitors in the Schultz-Dale reaction, each compound was incubated with the tissues 30 minutes before starting the curves. Vehicle (DMSO) was given to the paired control tissue. Pyrilamine (10 μM) was added to all baths at this time to block the actions of released histamine. Responses obtained at the antigen concentration of 30 ng/ml were recorded in the absence and presence of drug and percent inhibition was calculated for each pair of tissues. IC50 values were determined by linear regression.
LT or carbachol concentration-response curves were used to determine specificity of the agent as a 5-lipoxygenase inhibitor. In these experiments the test compound was incubated as described above. EC50 values, which represent the molar concentration of agonist required to induce 50% of maximal response, was determined by linear regression. Differences in EC50 values, in the presence and absence of test compound were analyzed by Student's t-test with P<0.05 regarded as significant.

C#CCOc1ccccc1C=CCN(O)C(N)=O [Example 7, N-hydroxy-N-[3-[2-(2-propynyloxy)phenyl]prop-2-enyl]urea]
inhibition in vivo at 30 mg/kg [1]: 93%
IC50 [2]: 2400 nM

NC(=O)N(O)CC=Cc1ccccc1SCC1CC1 [Example 6, N-hydroxy-N-[3-[2-(cyclopropylmethylthio)phenyl]-prop-2-enyl]urea]
inhibition in vivo at 30 mg/kg [1]: 75%
IC50 [2]: 620 nM

C#CCSc1ccccc1C=CCN(O)C(N)=O [Example 1, N-hydroxy-N-[3-[2-(2-propynylthio)phenyl]prop-2-enyl]urea]
inhibition in vivo at 30 mg/kg [1]: 78%
IC50 [2]: 2100 nM

C#CCSc1ccccc1C=C(C)CN(O)C(N)=O [Example 8, N-hydroxy-N-[2-methyl-3-[2-(2-propynylthio)phenyl]prop-2-enyl]urea]
inhibition in vivo at 30 mg/kg [1]: 51%
IC50 [2]: 1800 nM

CC#CCSc1ccccc1C=CCN(O)C(N)=O [Example 3, N-hydroxy-N-[3-[2-(2-butynylthio)phenyl]prop-2-enyl]urea]
Inhibition of 5-LO In Vivo Percent Inhibition (dose of 10 mg/kg) ([1]; 10 mg/kg (footnote a)): 30%
IC50 [2]: 600 nM

C#CCCSc1ccccc1C=CCN(O)C(N)=O [Example 2, N-hydroxy-N-[3-[2-(3-butynylthio)phenyl]prop-2-enyl]urea]
inhibition in vivo at 30 mg/kg [1]: 50%
IC50 [2]: 1000 nM

C=CCCSc1ccccc1C=CCN(O)C(N)=O [Example 4, N-hydroxy-N-[3-[2-(3-butenylthio)phenyl]-prop-2-enyl]urea]
inhibition in vivo at 30 mg/kg [1]: 81%
IC50 [2]: 390 nM

NC(=O)N(O)CC=Cc1ccccc1SCC1CCCCC1 [Example 5, N-hydroxy-N-[3-[2-(cyclohexylmethylthio)phenyl]-prop-2-enyl]urea]
inhibition in vivo at 30 mg/kg [1]: 76%
IC50 [2]: 1200 nM

C#CCSc1c(F)cccc1C=CCN(O)C(N)=O [Example 9, N-hydroxy-N-[3-[3-fluoro-2-(2-propynylthio)phenyl]prop-2-enyl]urea]
inhibition in vivo at 30 mg/kg [1]: 93%
IC50 [2]: 1000 nM
